Results as given in patent publication US12351580B2, “NLRP3 modulators” (Innate Tumor Immunity, Inc., priority 2017, dated 2025).
pEC50: −log10 of the molar value.

Target: T1, hNLRP3 (Homo sapiens, UniProt Q96P20)
T1 construct: THP-1 cells were purchased from the American Type Culture Collection; host or cells: THP-1 cells, PMA-differentiated
Test: Measurement of IL-1β production in PMA-differentiated THP-1 cells (hNLRP3 agonist; ELISA, alternative and hTRF procedures)
Assay type: cell-based
Procedure, shortened: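 Supernatant IL-1β was quantified by ELISA in two procedures and by hTRF (kit antibodies at 1:40) in a third. THP-1 cells were first differentiated with PMA ([…] for 24 h; 20 μg/ml overnight; 50 ng/ml overnight), then incubated in 2% FBS RPMI with compounds for 4 h, 2 h and 2 h, respectively, at 1% DMSO or a 10 μM top concentration.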

T1 sequence (Q96P20 whole entry): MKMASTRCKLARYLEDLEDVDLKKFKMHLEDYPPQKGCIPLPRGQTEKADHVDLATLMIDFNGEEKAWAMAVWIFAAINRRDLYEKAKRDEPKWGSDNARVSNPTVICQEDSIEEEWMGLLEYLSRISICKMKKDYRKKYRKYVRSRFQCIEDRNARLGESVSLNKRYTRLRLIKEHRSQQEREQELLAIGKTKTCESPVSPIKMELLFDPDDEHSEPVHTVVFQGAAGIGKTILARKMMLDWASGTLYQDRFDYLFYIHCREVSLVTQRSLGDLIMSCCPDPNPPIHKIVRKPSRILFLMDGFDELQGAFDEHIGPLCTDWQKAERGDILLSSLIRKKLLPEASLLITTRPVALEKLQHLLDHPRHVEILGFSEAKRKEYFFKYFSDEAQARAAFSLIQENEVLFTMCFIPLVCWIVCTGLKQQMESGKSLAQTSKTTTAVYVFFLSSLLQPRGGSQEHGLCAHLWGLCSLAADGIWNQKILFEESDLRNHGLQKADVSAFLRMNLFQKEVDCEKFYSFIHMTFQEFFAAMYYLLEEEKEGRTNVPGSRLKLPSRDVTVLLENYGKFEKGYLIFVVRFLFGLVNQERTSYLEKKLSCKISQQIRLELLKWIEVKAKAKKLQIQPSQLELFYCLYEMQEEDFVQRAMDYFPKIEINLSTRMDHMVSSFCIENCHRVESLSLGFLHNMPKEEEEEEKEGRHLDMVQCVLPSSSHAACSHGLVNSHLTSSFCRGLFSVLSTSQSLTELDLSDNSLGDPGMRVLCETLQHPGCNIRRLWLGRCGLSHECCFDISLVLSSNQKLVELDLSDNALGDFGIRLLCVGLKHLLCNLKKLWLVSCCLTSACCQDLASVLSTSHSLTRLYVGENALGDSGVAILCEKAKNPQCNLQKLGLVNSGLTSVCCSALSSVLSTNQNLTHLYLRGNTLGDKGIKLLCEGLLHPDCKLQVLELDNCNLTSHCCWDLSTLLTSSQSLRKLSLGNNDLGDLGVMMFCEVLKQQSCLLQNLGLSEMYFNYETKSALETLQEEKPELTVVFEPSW

Structure (SMILES)	pEC50
N#Cc1ccc(-c2ccc3c(c2)nc(N)c2nc(CN4CCCC4=O)[nH]c23)cc1 [Compound 434]	4.81
CCOC(=O)N(CC)Cc1nc2c(N)nc3cc(-c4cc[nH]n4)ccc3c2[nH]1 [Compound 436, Ethyl N-{[4-amino-7-(1H-pyrazol-3-yl)-1H-imidazo[4,5-c]quinolin-2-yl]methyl}-N-ethylcarbamate]	5.89
CCN(Cc1nc2c(N)nc3cc(-c4cc[nH]n4)ccc3c2[nH]1)C(=O)Cc1cccc(C)c1 [Compound 437, N-{[4-amino-7-(1H-pyrazol-3-yl)-1H-imidazo[4,5-c]quinolin-2-yl]methyl}-N-ethyl-2-(3-methylphenyl)acetamide]	5.96
CCN(Cc1nc2c(N)nc3cc(-c4cc[nH]n4)ccc3c2[nH]1)C(=O)c1cccnc1 [Compound 438, N-{[4-amino-7-(1H-pyrazol-3-yl)-1H-imidazo[4,5-c]quinolin-2-yl]methyl}-N-ethylpyridine-3-carboxamide]	5.38
CCN(Cc1nc2c(N)nc3cc(-c4cc[nH]n4)ccc3c2[nH]1)C(=O)c1ccccn1 [Compound 439, N-{[4-amino-7-(1H-pyrazol-3-yl)-1H-imidazo[4,5-c]quinolin-2-yl]methyl}-N-ethylpyridine-2-carboxamide]	5.24
CCN(Cc1nc2c(N)nc3cc(-c4cc[nH]n4)ccc3c2[nH]1)C(=O)CC(C)(C)O [Compound 440, N-{[4-amino-7-(1H-pyrazol-3-yl)-1H-imidazo[4,5-c]quinolin-2-yl]methyl}-N-ethyl-3-hydroxy-3-methylbutanamide]	4.74
CCN(Cc1nc2c(N)nc3cc(-c4cc[nH]n4)ccc3c2[nH]1)C(=O)c1ccc(OC)cc1 [Compound 441, N-{[4-amino-7-(1H-pyrazol-3-yl)-1H-imidazo[4,5-c]quinolin-2-yl]methyl}-N-ethyl-4-methoxybenzamide]	6.16
CCN(Cc1nc2c(N)nc3cc(-c4cc[nH]n4)ccc3c2[nH]1)C(=O)c1cnccn1 [Compound 442, N-{[4-amino-7-(1H-pyrazol-3-yl)-1H-imidazo[4,5-c]quinolin-2-yl]methyl}-N-ethylpyrazine-2-carboxamide]	5.59
CCN(Cc1nc2c(N)nc3cc(-c4cc[nH]n4)ccc3c2[nH]1)C(=O)Cc1ccccc1 [Compound 443, N-{[4-amino-7-(1H-pyrazol-3-yl)-1H-imidazo[4,5-c]quinolin-2-yl]methyl}-N-ethyl-2-phenylacetamide]	6.07
CCN(Cc1nc2c(N)nc3cc(-c4cc[nH]n4)ccc3c2[nH]1)C(=O)CCCc1ccccc1 [Compound 444, N-{[4-amino-7-(1H-pyrazol-3-yl)-1H-imidazo[4,5-c]quinolin-2-yl]methyl}-N-ethyl-4-phenylbutanamide]	6.03
CCN(Cc1nc2c(N)nc3cc(-c4cc[nH]n4)ccc3c2[nH]1)C(=O)CCC(C)C [Compound 445, N-{[4-amino-7-(1H-pyrazol-3-yl)-1H-imidazo[4,5-c]quinolin-2-yl]methyl}-N-ethyl-4-methylpentanamide]	6.13
CCN(Cc1nc2c(N)nc3cc(-c4cc[nH]n4)ccc3c2[nH]1)C(=O)c1cccn1C [Compound 446, N-{[4-amino-7-(1H-pyrazol-3-yl)-1H-imidazo[4,5-c]quinolin-2-yl]methyl}-N-ethyl-1-methyl-1H-pyrrole-2-carboxamide]	6.17
CCN(Cc1nc2c(N)nc3cc(-c4cc[nH]n4)ccc3c2[nH]1)C(=O)CCc1ccccc1 [Compound 447, N-{[4-amino-7-(1H-pyrazol-3-yl)-1H-imidazo[4,5-c]quinolin-2-yl]methyl}-N-ethyl-3-phenylpropanamide]	5.82
CCN(Cc1nc2c(N)nc3cc(-c4cc[nH]n4)ccc3c2[nH]1)C(=O)c1ccccc1Cl [Compound 449, N-{[4-amino-7-(1H-pyrazol-3-yl)-1H-imidazo[4,5-c]quinolin-2-yl]methyl}-2-chloro-N-ethylbenzamide]	6.05
CCN(Cc1nc2c(N)nc3cc(-c4cc[nH]n4)ccc3c2[nH]1)C(=O)c1ccncc1 [Compound 450, N-{[4-amino-7-(1H-pyrazol-3-yl)-1H-imidazo[4,5-c]quinolin-2-yl]methyl}-N-ethylpyridine-4-carboxamide]	5.35
CCN(Cc1nc2c(N)nc3cc(-c4cc[nH]n4)ccc3c2[nH]1)C(=O)c1cn(C)c2ccccc12 [Compound 451, N-{[4-amino-7-(1H-pyrazol-3-yl)-1H-imidazo[4,5-c]quinolin-2-yl]methyl}-N-ethyl-1-methyl-1H-indole-3-carboxamide]	5.89
CCN(Cc1nc2c(N)nc3cc(-c4cc[nH]n4)ccc3c2[nH]1)C(=O)c1ccc(Cl)cc1 [Compound 452, N-{[4-amino-7-(1H-pyrazol-3-yl)-1H-imidazo[4,5-c]quinolin-2-yl]methyl}-4-chloro-N-ethylbenzamide]	5.92
